Results: US4753955A, “Benzimidazole derivatives” (Tokyo Tanabe Company, Ltd., priority 1986, dated 1988)
pIC50: −log10 of the molar value.

How the values were obtained:
[1] = Acute toxicity (LD50); settings: rat, in vivo, 5 weeks old male Wistar rats
Experimental: Using 5 weeks old male Wistar rats, acute toxicity (LD50) of two representative compounds (compounds obtained in Examples 1 and 8) of the present compounds [I] was tested.

[2] = tested on: gastric acid secretion; assay: Gastric antisecretory effect (pylorus ligated rats); format: in vivo; settings: Rattus norvegicus; po; male Wistar rats; pylorus ligated 1 hour after administration, total acid after 4 hours; read-out: Gastric Antisecretory Effect, ED50 (inhibition of total gastric acid by 50%)
Experimental: Exactly 1 hour after the completion of the administration, the pyloric regions of their stomachs were ligated. After 4 hours, the total acid contained in the gastric juice of each rat was determined. […] To collect the gastric juice, the rats were killed, and their stomachs were cut open. The total acid in the gastric juice was determined by titrating the juice with aqueous 0.1N sodium hydroxide solution until its pH reached 7.0. As a control experiment, the total acid contained in the gastric juice of rats not administered with the compounds was also determined in the same manner as above. […] In order to determine the ED50 value, the difference in total acid between a group of rats administered with a test compound and a group of rats not administered with any of the test compounds was calculated, and the difference was then divided by the total acid of the latter rats, so as to obtain a rate of inhibition. With inhibition rates thus obtained, a dosage-effect curve was plotted, and the ED50 value was determined on the basis of the curve. In the table is also shown, for the purpose of comparison, the ED50 value of omeprazole determined in the same manner as above.

[3] = Stability during storage (60° C., 75% R.H., 6 days), residual rate by thin layer densitometry; format: physicochemical; settings: storage at 75% r.h.
Experimental: In the thin layer densitometry, spots each containing 100 μg of a test sample were applied onto thin layer plates. The spots were developed with a mixture of chloroform and ethanol (10:1, by volume). As the thin layer plates, TLC Plate Silica Gel 60 F254 (10×20 cm, 0.25 mm in thickness, a product of Merck & Co., Inc.) was used. The distance of development was 15 cm. The densitometry was effected by use of a Shimadzu Dichroic Chromatoscanner CS-910 (manufactured by Shimadzu Corporation) at a wavelength of 280 or 300 nm.

[4] = biological target: T1, (H^+ +K^+)-ATPase (Sus scrofa, UniProt P19156); assay: (H^+ +K^+)-ATPase inhibiting activity; format: biochemical; settings: enzyme from hog fundus ventriculi; incubation with compound 35° to 37° C., 5 to 30 minutes
T1 construct: prepared from the fundus ventriculi of fresh hog stomachs; from tissue; host or cells: fundus ventriculi of fresh hog stomachs, prepared by the method of Saccomani et al. (J. Biol. Chem. 251, 7690, 1976)
Experimental: The (H^+ +K^+)-ATPase inhibiting activity of the present compounds [I] was determined in the following manner: […] The (H^+ +K^+)-ATPase used in the above test was prepared from the fundus ventriculi of fresh hog stomachs in accordance with the method of Saccomani et al. [The Journal of Biological Chemistry, Vol. 251, No. 23, p. 7690 (1976)]. […] The colorimetric measurement was effected at a wavelength range of from 360 to 400 nm. As a control experiment, the residual activity of (H^+ +K^+)-ATPase was determined in the same manner as above without addition of any test compounds. […] To be more specific, the difference between the colorimetric reading obtained in the control experiment and the colorimetric reading obtained with a test compound is calculated at various molar concentrations, and the difference is divided by the reading of the control experiment to give a rate of inhibition. With inhibition rates thus obtained, a density-inhibition rate curve is plotted, and the IC50 value is determined based on the curve. In the table is also shown, for the purpose of comparison, the (H^+ +K^+)-ATPase inhibiting activity of omeprazole determined in the same manner as above.

[5] = stored without any special precautions; background statement; cited from earlier work
[6] = ip, administered intraperitoneally

T1 sequence (P19156 2-1034 limits assumed): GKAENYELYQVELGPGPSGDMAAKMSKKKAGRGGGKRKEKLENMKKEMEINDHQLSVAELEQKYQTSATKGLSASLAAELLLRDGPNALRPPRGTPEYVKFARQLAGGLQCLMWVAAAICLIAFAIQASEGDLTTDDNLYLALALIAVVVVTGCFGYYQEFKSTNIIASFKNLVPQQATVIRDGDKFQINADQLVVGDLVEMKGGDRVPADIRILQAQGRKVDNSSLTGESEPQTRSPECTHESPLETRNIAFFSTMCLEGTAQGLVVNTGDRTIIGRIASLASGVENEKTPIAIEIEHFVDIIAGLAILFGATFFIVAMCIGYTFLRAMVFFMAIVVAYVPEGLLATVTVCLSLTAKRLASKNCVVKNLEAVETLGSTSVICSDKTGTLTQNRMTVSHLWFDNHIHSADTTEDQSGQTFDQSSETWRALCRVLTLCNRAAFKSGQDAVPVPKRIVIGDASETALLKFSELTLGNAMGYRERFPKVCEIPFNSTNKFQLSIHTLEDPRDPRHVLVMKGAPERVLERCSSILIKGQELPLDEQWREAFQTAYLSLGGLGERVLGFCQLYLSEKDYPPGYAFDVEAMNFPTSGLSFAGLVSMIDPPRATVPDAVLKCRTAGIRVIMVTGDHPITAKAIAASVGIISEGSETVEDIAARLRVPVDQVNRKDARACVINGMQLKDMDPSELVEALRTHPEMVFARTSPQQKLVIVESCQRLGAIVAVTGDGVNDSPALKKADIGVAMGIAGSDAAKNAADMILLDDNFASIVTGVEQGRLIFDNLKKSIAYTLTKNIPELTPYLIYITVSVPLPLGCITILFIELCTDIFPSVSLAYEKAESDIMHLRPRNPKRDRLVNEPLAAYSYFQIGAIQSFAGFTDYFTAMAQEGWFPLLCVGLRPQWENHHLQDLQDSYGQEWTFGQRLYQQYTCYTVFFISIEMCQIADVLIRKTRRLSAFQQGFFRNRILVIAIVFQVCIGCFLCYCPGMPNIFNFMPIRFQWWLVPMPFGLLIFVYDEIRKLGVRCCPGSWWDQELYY
T1 sequence (P18434 whole entry partner): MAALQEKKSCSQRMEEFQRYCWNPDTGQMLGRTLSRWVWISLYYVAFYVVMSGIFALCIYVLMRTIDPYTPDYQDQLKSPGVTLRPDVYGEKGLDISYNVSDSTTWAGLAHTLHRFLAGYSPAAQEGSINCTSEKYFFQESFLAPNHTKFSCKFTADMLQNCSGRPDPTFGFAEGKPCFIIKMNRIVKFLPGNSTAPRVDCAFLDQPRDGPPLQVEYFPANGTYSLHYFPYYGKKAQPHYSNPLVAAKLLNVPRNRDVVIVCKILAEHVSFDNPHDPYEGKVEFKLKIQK

| Compound | LD50 [1, 6] [mg/kg] | LD50 ([1]; po, administered orally) [mg/kg] | ED50 [2] [mg/kg] | remaining at 144 h [3] [%] | pIC50 [4] | stability of omeprazole when stored (in words) [5] |
| --- | --- | --- | --- | --- | --- | --- |
| Cc1cnc(C[S+]([O-])c2nc3cc(OCC4CC4)ccc3[nH]2)c(C)c1 (stereo not drawn) [Example 1, 2-[2-(3,5-dimethyl)pyridylmethylsulfinyl]-5-cyclopropylmethyloxybenzimidazole] | ≥ 500 | ≥ 4000 | 17.8 | 91 | 2.74 | – |
| Cc1ccnc(C[S+]([O-])c2nc3cc(OCC4CC4)ccc3[nH]2)c1 (stereo not drawn) [Example 2, 2-[2-(4-methyl)pyridylmethylsulfinyl]-5-cyclopropylmethyloxybenzimidazole] | – | – | – | 59 | 2.68 | – |
| Cc1cnc(C[S+]([O-])c2nc3c(OCC4CC4)cccc3[nH]2)c(C)c1 (stereo not drawn) [Example 3, 2-[2-(3,5-dimethyl)pyridylmethylsulfinyl]-4-cyclopropylmethyloxybenzimidazole] | – | – | 19.5 | 88 | 3.05 | – |
| Cc1cnc(C[S+]([O-])c2nc3cc(OCC4CC4)ccc3[nH]2)c(C)c1C (stereo not drawn) [Example 4, 2-[2-(3,4,5-trimethyl)pyridylmethylsulfinyl]-5-cyclopropylmethyloxybenzimidazole] | – | – | 22.1 | 94 | 3.00 | – |
| Cc1cnc(C[S+]([O-])c2nc3c(OCC4CC4)cccc3[nH]2)c(C)c1C (stereo not drawn) [Example 5, 2-[2-(3,4,5-trimethyl)pyridylmethylsulfinyl]-4-cyclopropylmethyloxybenzimidazole] | – | – | – | 86 | 2.72 | – |
| COc1c(C)cnc(C[S+]([O-])c2nc3c(OCC4CC4)cccc3[nH]2)c1C (stereo not drawn) [Example 6, 2-[2-(4-methoxy-3,5-dimethyl)pyridylmethylsulfinyl]-4-cyclopropylmethyloxybenzimidazole] | – | – | – | 67 | 2.72 | – |
| COc1c(C)cnc(C[S+]([O-])c2nc3cc(OCC4CC4)ccc3[nH]2)c1C (stereo not drawn) [Example 7, 2-[2-(4-methoxy-3,5-dimethyl)pyridylmethylsulfinyl]-5-cyclopropylmethyloxybenzimidazole] | – | – | – | 37 | 2.77 | – |
| COc1cc(C[S+]([O-])c2nc3cc(OCC4CC4)ccc3[nH]2)ncc1C (stereo not drawn) [Example 8, 2-[2-(4-methoxy-5-methyl)pyridylmethylsulfinyl]-5-cyclopropylmethyloxybenzimidazole] | ≥ 500 | ≥ 4000 | 25.9 | 32 | 3.52 | – |
| COc1cc(C[S+]([O-])c2nc3c(OCC4CC4)cccc3[nH]2)ncc1C (stereo not drawn) [Example 9, 2-[2-(4-methoxy-5-methyl)pyridylmethylsulfinyl]-4-cyclopropylmethyloxybenzimidazole] | – | – | – | 76 | 3.37 | – |
| COc1ccc2[nH]c([S+]([O-])Cc3ncc(C)c(OC)c3C)nc2c1 (stereo not drawn) [Omeprazole, 5-methoxy-2-[2-(4-methoxy-3,5-dimethyl)-pyridylmethylsulfinyl]benzimidazole, reference compound] | – | – | 30.5 | 5 | 2.74 | degraded at an unexpectedly high rate |
